The text below walks through data of patent US20140357633A1, “COMPOUNDS FOR INHIBITING THE INTERACTION OF BCL2 WITH BINDING PARTNERS” (NOVARTIS AG, priority 2011, published 2014).

The target in assay [1] is BCL-2 (binding to BAK peptide) (Homo sapiens, UniProt P10415). The assay can be described thus: SPR (Biacore) solution inhibition assay, BCL-2 binding to immobilized BAK peptide. Particulars: biotinylated BAK peptide surface, 56 nM BCL-2, 25° C.; range = high and low IC50 values from multiple experiments; read-out: BCL2_SPR IC50 BAK. The method, boiled down:
(§1)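 Compounds (6-point threefold series, 16 μM to 0.004 nM) preincubated 1 h with 56 nM BCL-2, then injected 60 s over biotinylated peptide captured on streptavidin chips at 25° C. Running buffer: 10 mM HEPES pH 7.4, 150 mM NaCl, 1.25 mM DTT, 3% DMSO, 0.05% polysorbate 20. % inhibition versus BCL-2-only binding gave IC50.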

Assay [2] has as its target BCL-2 (binding to BAD peptide) (Homo sapiens, UniProt P10415). As to the kind of experiment: SPR (Biacore) solution inhibition assay, BCL-2 binding to immobilized BAD peptide. Particulars: biotinylated BAD peptide surface, 56 nM BCL-2, 25° C.; range = high and low IC50 values from multiple experiments; read-out: BCL2_SPR IC50 BAD. The method, boiled down: as §1

BCL-2 (binding to BAK peptide), sequence (P10415 whole entry): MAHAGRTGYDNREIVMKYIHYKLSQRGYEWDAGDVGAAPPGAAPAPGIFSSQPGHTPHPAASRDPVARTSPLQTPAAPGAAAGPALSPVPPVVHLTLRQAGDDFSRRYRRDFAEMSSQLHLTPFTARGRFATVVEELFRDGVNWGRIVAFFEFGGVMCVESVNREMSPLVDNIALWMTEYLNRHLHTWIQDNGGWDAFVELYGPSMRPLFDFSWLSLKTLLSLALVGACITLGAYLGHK
BCL-2 (binding to BAD peptide), sequence (P10415 whole entry): as above

`CCCCN(CCCC)C(=O)c1cc(C)n(-c2ccc(NC(=O)c3cc(C)[nH]n3)cc2C(=O)N2Cc3ccccc3C[C@H]2CO)n1` [Example 109]: the IC50 in assay [1] was 505 to 525 nM; in assay [2], 477 to 528 nM.
For `CCCCN(CCCC)C(=O)c1cc(C)n(-c2ccc(NC(=O)c3oc(-c4ccccc4)nc3C)cc2C(=O)N2Cc3ccccc3C[C@H]2CO)n1` [Example 46] the same measures were 692 to 840 nM and 628 to 760 nM.
For `CCCCN(CCCC)C(=O)c1cc(C)n(-c2ccc(NC(=O)Cc3cc(F)ccc3OC)cc2C(=O)N2Cc3ccccc3C[C@H]2CO)n1` [Example 70] the same measures were 133 to 134 nM and 143 to 158 nM.
Consider `CCCCN(CCCC)C(=O)c1cc(C)n(-c2ccc(NC(=O)c3cc4ccccc4cn3)cc2C(=O)N2Cc3ccccc3C[C@H]2CO)n1` [Example 123], for which the results for the IC50 in assay [1] and in assay [2] were 249 to 279 nM and 293 to 339 nM, respectively.
For `CCCCN(CCCC)C(=O)c1cc(C)n(-c2ccc(NC(=O)c3ccc(SC(F)(F)F)cc3)cc2C(=O)N2Cc3ccccc3C[C@H]2CO)n1` [Example 154] the same measures were 2380 to 4330 nM and 5790 to 6250 nM.
For `CCCCN(CCCC)C(=O)c1cc(C)n(-c2ccc(NC(=O)CN3CC(c4ccccc4)CC3=O)cc2C(=O)N2Cc3ccccc3C[C@H]2CO)n1` (some centres unmarked) [Example 119] the same measures were 94 to 98.2 nM and 111 to 112 nM.
For `CCCCN(CCCC)C(=O)c1cc(C)n(-c2ccc(NC(=O)c3ccc(COC)o3)cc2C(=O)N2Cc3ccccc3C[C@H]2CO)n1` [Example 142] the same measures were 935 to 1120 nM and 1130 to 1300 nM.
As to `CCCCN(CCCC)C(=O)c1cc(C)n(-c2ccc(NC(=O)Cc3nc(-c4ccccc4)oc3C)cc2C(=O)N2Cc3ccccc3C[C@H]2CO)n1` [Example 106], the 50% inhibitory concentration (IC50) in assay [1] fell in the range of 106 to 110 nM; in assay [2], 131 to 140 nM.
As for `CCCCN(CCCC)C(=O)c1cc(C)n(-c2ccc(NC(=O)Cc3c(F)cccc3Cl)cc2C(=O)N2Cc3ccccc3C[C@H]2CO)n1` [Example 159], the IC50 in assay [1] is 409 to 430 nM; in assay [2], 574 to 596 nM.
For `CCCCN(CCCC)C(=O)c1cc(C)n(-c2ccc(NC(=O)[C@@H]3COc4ccccc4O3)cc2C(=O)N2Cc3ccccc3C[C@H]2CO)n1` [Example 65] the same measures were 137 to 140 nM and 172 to 173 nM.
For `CCCCN(CCCC)C(=O)c1cc(C)n(-c2ccc(NC(=O)c3ccccc3Nc3ccccc3[N+](=O)[O-])cc2C(=O)N2Cc3ccccc3C[C@H]2CO)n1` [Example 146] the same measures were 396 to 471 nM and 467 to 500 nM.
For the molecule `CCCCN(CCCC)C(=O)c1cc(C)n(-c2ccc(NC(=O)C(CC(=O)OCC)c3ccccc3)cc2C(=O)N2Cc3ccccc3C[C@H]2CO)n1` (some centres unmarked) [Example 53], the concentration for half-maximal inhibition (IC50) was 162 nM in assay [1] and 181 to 187 nM in assay [2].
Regarding `CCCCN(CCCC)C(=O)c1cc(C)n(-c2ccc(NC(=O)c3cc4c(OC)c(OC)ccc4[nH]3)cc2C(=O)N2Cc3ccccc3C[C@H]2CO)n1` [Example 149], the half-maximal inhibitory concentration (IC50) lay within 161 to 162 nM in assay [1] and 142 to 164 nM in assay [2].
For `CCCCN(CCCC)C(=O)c1cc(C)n(-c2ccc(NC(=O)C(C)c3noc4ccccc34)cc2C(=O)N2Cc3ccccc3C[C@H]2CO)n1` (some centres unmarked) [Example 161] the same measures were 1330 to 1560 nM and 3070 to 3910 nM.
As to `CCCCN(CCCC)C(=O)c1cc(C)n(-c2ccc(NC(=O)CCc3ccccc3)cc2C(=O)N2Cc3ccccc3C[C@H]2CO)n1` [Example 8], the results for the half-inhibitory concentration (IC50) in assay [1] and in assay [2] were 191 to 287 nM and 198 to 260 nM, respectively.
For `CCCCN(CCCC)C(=O)c1cc(C)n(-c2ccc(NC(=O)C3CC(=O)N(Cc4ccc(F)cc4)C3)cc2C(=O)N2Cc3ccccc3C[C@H]2CO)n1` (some centres unmarked) [Example 50] the same measures were 554 to 643 nM and 702 to 723 nM.
For `CCCCN(CCCC)C(=O)c1cc(C)n(-c2ccc(NC(=O)[C@H](OC)c3ccc4ccccc4c3)cc2C(=O)N2Cc3ccccc3C[C@H]2CO)n1` [Example 162] the same measures were 36.1 to 36.8 nM and 43.5 to 44.3 nM.
For `CCCCN(CCCC)C(=O)c1cc(C)n(-c2ccc(NC(=O)C3CC(=O)N(Cc4ccccc4Cl)C3)cc2C(=O)N2Cc3ccccc3C[C@H]2CO)n1` (some centres unmarked) [Example 41] the same measures were 75.4 to 83.3 nM and 96.4 to 97.6 nM.
For `CCCCN(CCCC)C(=O)c1cc(C)n(-c2ccc(NC(=O)C(CC(=O)O)c3ccccc3)cc2C(=O)N2Cc3ccccc3C[C@H]2CO)n1` (stereo partly drawn) [Example 2, 4-((4-(3-(dibutylcarbamoyl)-5-methyl-1H-pyrazol-1-yl)-3-((S)-3-(hydroxymethyl)-1,2,3,4-tetrahydroisoquinoline-2-carbonyl)phenyl)amino)-4-oxo-3-phenylbutanoic acid], the concentration for half-maximal inhibition (IC50) in assay [1] fell in the range of 27.5 to 44.8 nM; in assay [2] it was 30.3 to 53.6 nM.
For the molecule `CCCCN(CCCC)C(=O)c1cc(C)n(-c2ccc(NC(=O)Cc3ccc(F)cc3)cc2C(=O)N2Cc3ccccc3C[C@H]2CO)n1` [Example 98], the results for the concentration for half-maximal inhibition (IC50) in assay [1] and in assay [2] were 244 to 267 nM and 302 to 306 nM, respectively.
For `CCCCN(CCCC)C(=O)c1cc(C)n(-c2ccc(NC(=O)C(CC(=O)NC)c3ccccc3)cc2C(=O)N2Cc3ccccc3C[C@H]2CO)n1` (some centres unmarked) [Example 55] the same measures were 81 to 110 nM and 100 to 129 nM.
For `CCCCN(CCCC)C(=O)c1cc(C)n(-c2ccc(NC(=O)C3=CC(c4ccccc4)NC(=O)N3)cc2C(=O)N2Cc3ccccc3C[C@H]2CO)n1` (some centres unmarked) [Example 51] the same measures were 122 to 126 nM and 155 to 158 nM.
In the case of `CCCCN(CCCC)C(=O)c1cc(C)n(-c2ccc(NC(=O)CCNC(C)=O)cc2C(=O)N2Cc3ccccc3C[C@H]2CO)n1` [Example 56], the values for the 50% inhibitory concentration (IC50) in assay [1] and in assay [2] were 722 to 725 nM and 1090 nM, respectively.
For `CCCCN(CCCC)C(=O)c1cc(C)n(-c2ccc(NC(=O)Cc3ccc(OC)c(C)c3)cc2C(=O)N2Cc3ccccc3C[C@H]2CO)n1` [Example 95] the same measures were 107 to 108 nM and 148 to 155 nM.
With `CCCCN(CCCC)C(=O)c1cc(C)n(-c2ccc(NC(=O)c3ccccc3Oc3ccccc3)cc2C(=O)N2Cc3ccccc3C[C@H]2CO)n1` [Example 68], the IC50 in assay [1] fell in the range of 100 to 103 nM; in assay [2], 122 to 125 nM.
For `CCCCN(CCCC)C(=O)c1cc(C)n(-c2ccc(NC(=O)Cc3ccccc3Cl)cc2C(=O)N2Cc3ccccc3C[C@H]2CO)n1` [Example 139] the same measures were 192 to 194 nM and 276 to 287 nM.
For `CCCCN(CCCC)C(=O)c1cc(C)n(-c2ccc(NC(=O)c3cccn(Cc4ccccc4)c3=O)cc2C(=O)N2Cc3ccccc3C[C@H]2CO)n1` [Example 116] the same measures were 731 to 786 nM and 839 to 856 nM.
For `CCCCN(CCCC)C(=O)c1cc(C)n(-c2ccc(NC(=O)Cc3cccc(C#N)c3)cc2C(=O)N2Cc3ccccc3C[C@H]2CO)n1` [Example 160] the same measures were 180 to 193 nM and 229 to 238 nM.
Turning to `CCCCN(CCCC)C(=O)c1cc(C)n(-c2ccc(NC(=O)[C@H](C)c3ccccc3)cc2C(=O)N2Cc3ccccc3C[C@H]2CO)n1` [Example 113], the IC50 in assay [1] was 562 to 660 nM; in assay [2], 671 to 708 nM.
For `CCCCN(CCCC)C(=O)c1cc(C)n(-c2ccc(NC(=O)COC3CCCCC3)cc2C(=O)N2Cc3ccccc3C[C@H]2CO)n1` [Example 128] the same measures were 177 to 178 nM and 270 to 272 nM.
With `CCCCN(CCCC)C(=O)c1cc(C)n(-c2ccc(NC(=O)c3cnc(N4CCCC4)nc3)cc2C(=O)N2Cc3ccccc3C[C@H]2CO)n1` [Example 88], the IC50 in assay [1] was 290 to 393 nM; in assay [2] it was 388 to 405 nM.
For `CCCCN(CCCC)C(=O)c1cc(C)n(-c2ccc(NC(=O)c3cc(=O)c4cc(C)ccc4o3)cc2C(=O)N2Cc3ccccc3C[C@H]2CO)n1` [Example 59] the same measures were 395 to 410 nM and 531 to 537 nM.
Consider `CCCCN(CCCC)C(=O)c1cc(C)n(-c2ccc(NC(=O)OCC(C)C)cc2C(=O)N2Cc3ccccc3C[C@H]2CO)n1` [Example 9], for which the half-maximal inhibitory concentration (IC50) lay in the range of 394 to 452 nM in assay [1] and 499 to 606 nM in assay [2].
For `CCCCN(CCCC)C(=O)c1cc(C)n(-c2ccc(NC(=O)CC(C(=O)O)c3ccccc3)cc2C(=O)N2Cc3ccccc3C[C@H]2CO)n1` (some centres unmarked) [Example 42] the same measures were 55 to 61.3 nM and 51.1 to 59.1 nM.
Regarding `CCCCN(CCCC)C(=O)c1cc(C)n(-c2ccc(NC(=O)COc3cc(Cl)c(Cl)cc3Cl)cc2C(=O)N2Cc3ccccc3C[C@H]2CO)n1` [Example 127], the IC50 lay within 106 to 108 nM in assay [1] and 131 to 138 nM in assay [2].
For `CCCCN(CCCC)C(=O)c1cc(C)n(-c2ccc(NC(=O)Cc3ccc(OC)cc3)cc2C(=O)N2Cc3ccccc3C[C@H]2CO)n1` [Example 77] the same measures were 55.8 to 64.3 nM and 65.8 to 71 nM.
For `CCCCN(CCCC)C(=O)c1cc(C)n(-c2ccc(NC(=O)c3cc(-c4ccccc4)nn3-c3ccc(F)cc3)cc2C(=O)N2Cc3ccccc3C[C@H]2CO)n1` [Example 120] the same measures were 494 to 559 nM and 726 to 732 nM.
For `CCCCN(CCCC)C(=O)c1cc(C)n(-c2ccc(NC(=O)CS(=O)(=O)c3ccccc3)cc2C(=O)N2Cc3ccccc3C[C@H]2CO)n1` [Example 152] the same measures were 339 to 358 nM and 348 to 392 nM.
For the molecule `CCCCN(CCCC)C(=O)c1cc(C)n(-c2ccc(NC(=O)Cc3ccc(OC)c(F)c3)cc2C(=O)N2Cc3ccccc3C[C@H]2CO)n1` [Example 97], the IC50 in assay [1] lay within 146 to 168 nM; in assay [2], 201 to 210 nM.
For `CCCCN(CCCC)C(=O)c1cc(C)n(-c2ccc(NC(=O)Cc3cccc4ccccc34)cc2C(=O)N2Cc3ccccc3C[C@H]2CO)n1` [Example 3, (S)—N,N-dibutyl-1-(2-(3-(hydroxymethyl)-1,2,3,4-tetrahydroisoquinoline-2-carbonyl)-4-(2-(naphthalen-1-yl)acetamido)phenyl)-5-methyl-1H-pyrazole-3-carboxamide] the same measures were 44.4 to 52.4 nM and 48.9 to 58 nM.
